{
  "source": "the NIST ThermoML archive (doi:10.1016/j.jct.2014.04.011)",
  "key": {"[1]": {"assay": "Molar enthalpy of transition or fusion", "conditions": "Crystal; DSC"}, "[2]": {"conditions": "Crystal; DTA"}},
  "note": "Numbers after ± are expanded uncertainties.",
  "data": [
    {"smiles": "CC(C)(C)C(=O)C(Oc1ccc(Cl)cc1)n1ccnc1", "note": "(configuration not stated) [1-(4-Chlorophenoxy)-1-(imidazol-1-yl)-3,3-dimethylbutanone]", "values": [
      {"measurement": "Molar enthalpy of transition or fusion", "setting": "[1]", "value": "29 ± 1", "unit": "kJ/mol"},
      {"measurement": "Triple point temperature", "setting": "[2]", "value": "372 ± 0.7", "unit": "K"}
    ]}
  ]
}
